Results published in patent publication US20020091139A1 (DAMON TODD HOLDINGS, L.L.C., priority 1997, published 2002).

What was measured:
[1] = test system: severe symptomatic non-steroid dependent and steroid-dependent asthmatics; test: Open label 28-week trial of HCQ in severe asthma; assay type: in vivo, human; conditions: for mean IgE level: ten patients
Procedure: Annals of Allergy 1992;68(1):80 (abstract #40). The initial trial involved four severe symptomatic non-steroid dependent and seven steroid-dependent asthmatics in an open label 28-week trial at doses of 300-400 mg/d. Evaluation measures included daily symptom diary scores of six symptoms, subjective global evaluation, spirometric flow studies, and cumulative monthly steroid dosages.

[2] = test system: steroid-dependent asthmatics (SDA) and non-steroid-dependent asthmatics (NSDA); test: Follow-up observations of asthmatics treated long-term with HCQ (SDA and NSDA groups); assay type: in vivo, human
Excerpt: Follow-up observations carried out over the last four years among patients treated with HCQ continue to encourage further research. In Table I and II, data concerning the course of 23 steroid-dependent asthmatics (SDA) who have been followed for at least six months on therapy is presented. Spirometric data from these patients is summarized on page 2 of Table I. In the summary, two data groups are reported: the first includes all data points generated and compares each time point with t=0; the second is restricted to the 17 patients for whom data is complete at all time points. The findings are similar for both groups: both FVC and FEV-1 increase both a significant amount (about 10%) and to a degree that is statistically significant as well (using Wilcoxon Signed-Rank probability testing). These increases occurred despite a taper in prednisone outlined in Table I and detailed in Table II. Average daily oral steroid dosage was reduced by 60%, while objective spirometric flow measures and general health improved markedly.
Changes in severity of asthma in non-steroid-dependent asthmatics (NSDA) are depicted in Table III. In Table III, spirometric flow data is presented. […] Probability testing (Wilcoxon Signed-Rank) in this group achieves significant change from baseline measures by month six and continued improvement is noted throughout the time of treatment.
2] […] In neither the NSDA group (Table I) nor in the SDA group (Table II) did spirometric flows (as measured by FEV-1) improve to a statistically significant degree at three months. […] In Table IV, data regarding the frequency of rescue-intervention in the NSDA group is reviewed. […] The course of patient, presented in Table V is illustrative of the reproducibility of the delay in onset of action seen in severe asthmatics. This patient was started on HCQ due to very labile asthma requiring frequent ER visits and oral steroid bursts (see Table VI). On HCQ they did better, but became pregnant (against medical advice) and the drug was discontinued. Subsequently, they did quite poorly necessitating restart of alternate-day oral steroids which were maintained during the latter part of their pregnancy. HCQ was restarted at their request following delivery. Again, no clear effect in the person was noted after three months, but after seven months substantial improvement was noted despite appreciable reduction in the dose of their alternate-daily oral steroids.
In patients with normal IgE levels, changes were not significant either in amount (19%) nor by statistical criteria. Significant declines in IgE were virtually completely confined to that segment of the patients who entered treatment with elevated IgE levels. […] These clinical observations are supported by in vitro studies carried out recently by Seggev and co-workers. […] J Immunol 1993;150(8):62A.

[3] = test system: symptomatic asthmatics; test: Double blind placebo-controlled 30-week trial of HCQ in moderate symptomatic asthma; assay type: in vivo, human
Excerpt: Symptomatic asthmatics (mean duration>11 years) on stable doses of at least 6 puffs of inhaled steroid per day and p.r.n. bronchodilator (BD) were studied. […] Changes from baseline mean FEV-1 comprised the primary efficacy variable. Other objective variables included daily peak flows, BD usage and setum IgE level; symptom scores and physician global (safety and tolerance) assessments were also obtained. Subjective efficacy variables (rated from 0-3) include breathing restrictions (wheezing, coughing, chest tightness and/or breathlessness), revived need for BD at 6 hours, and nocturnal asthma.

[4] = test system: human lung; conditions: ex vivo human lung; cited from earlier work
[5] = test system: T-cells and monocytes; human macrophages; conditions: cited from earlier work
[6] = test system: neutrophil superoxide production; conditions: also in peripheral blood monocytes; cited from earlier work
[7] = test system: platelet aggregation; conditions: cited from earlier work
[8] = test system: HIV virus; conditions: T cells and monocytes; cited from earlier work
[9] = test system: influenza and adenovirus; conditions: personal communication; cited from earlier work
[10] = group as a whole, 28 weeks, 300-400 mg/d, p<0.01
[11] = non-steroid-dependent asthmatics, p<0.05
[12] = steroid-dependent patients, not significant
[13] = steroid-dependent asthmatics, at least six months on therapy

**Q.** Which “effect on plasma theophylline levels” value ([1]; drug interaction) does the source give for `CCN(CCO)CCCC(C)Nc1ccnc2cc(Cl)ccc12` (stereo not shown) [HCQ, Hydroxychloroquine] here?
**A.** The value was “no significant effect”.

**Q.** And the “mean IgE level” value ([1]; during treatment, p<0.05)?
**A.** Its value is 339 IU/ml.

**Q.** What about the “mean FEV-1 increase” value [1, 10] of the same compound?
**A.** Its value is 17%.

**Q.** What about the “mean FVC increase” value [1, 10] of the same compound?
**A.** The value was 10%.

**Q.** And the “mean of each of six symptom scores” value ([1]; group as a whole, p<0.05)?
**A.** Its value is “declined significantly”.

**Q.** What about the “mean FEV-1 rise” value [1, 11] of the same compound?
**A.** The value was 32%.

**Q.** What about the “mean FVC rise” value [1, 11] of the same compound?
**A.** The value was 19%.

**Q.** And the “mean symptom scores for four of five symptoms” value [1, 11]?
**A.** Its value is “declined from baseline”.

**Q.** What about the “mean IgE level” value ([1]; pretreatment) of the same compound?
**A.** Its value is 645 IU/ml.

**Q.** What about the “cumulative mean monthly steroid dosage required” value ([1]; steroid-dependent patients, at entry) of the same compound?
**A.** Its value is 383 mg.

**Q.** What about the “cumulative mean monthly steroid dosage required” value ([1]; steroid-dependent patients, at week 28) of the same compound?
**A.** Its value is 191 mg.

**Q.** What about the “decrease of cumulative mean monthly steroid dosage required” value ([1]; steroid-dependent patients, entry to week 28, p<0.01) of the same compound?
**A.** The value was 50%.

**Q.** And the “mean FEV-1 increase” value [1, 12]?
**A.** Its value is 9%.

**Q.** What about the “mean FVC increase” value [1, 12] of the same compound?
**A.** The value was 7%.

**Q.** What about the symptom scores ([1]; steroid-dependent patients, p<0.05) of the same compound?
**A.** The symptom scores was “two of five symptom scores improved”.

**Q.** And the “forced vital capacity and FEV-1” value ([2]; 11 non-steroid-dependent asthmatics, significant from month six)?
**A.** Its value is “very significant improvements”.

**Q.** What about the “rescue-interventions (normalized rates)” value ([2]; NSDA group, until after three months therapy) of the same compound?
**A.** The value was “no significant fall”.

**Q.** What about the “decrease in serum IgE levels” value ([2]; patients in general, pre- vs post-treatment) of the same compound?
**A.** The value was ~40%.

**Q.** And the “change in serum IgE levels” value ([2]; patients with normal IgE levels, not significant)?
**A.** Its value is 19%.

**Q.** What about the “onset of significant effects” value ([2]; severe asthmatics) of the same compound?
**A.** Its value is “only after three months”.

**Q.** What about the “reduction of average daily oral steroid dosage” value ([2]; steroid-dependent asthmatics) of the same compound?
**A.** The value was 60%.

**Q.** And the FEV-1 increase [2, 13]?
**A.** The FEV-1 increase was “about 10%”.

**Q.** And the FVC increase [2, 13]?
**A.** The FVC increase was “about 10%”.

**Q.** And the tolerability ([3]; 30 weeks)?
**A.** Its tolerability is “well tolerated without notable side-effects”.

**Q.** And the “patients requiring oral steroid rescue interventions” value ([3]; HCQ group n=8 (4 on placebo))?
**A.** Its value is 2 patients.

**Q.** And the “mean IgE level” value ([3]; HCQ group, baseline)?
**A.** The value was 240 lU/ml.

**Q.** And the “mean IgE level” value ([3]; HCQ group, on therapy)?
**A.** The value was 125 lU/ml.

**Q.** And the “evening peak flows rise” value ([3]; HCQ group, p<0.04)?
**A.** Its value is 14.2%.

**Q.** And the “mean IgE level decline” value ([3]; HCQ group, p<0.05)?
**A.** Its value is 48%.

**Q.** And the BD usage fall ([3]; bronchodilator usage, HCQ group, p<0.03)?
**A.** Its BD usage fall is 18.6%.

**Q.** And the “mean FEV-1 increase” value ([3]; last 2 visits on therapy vs baseline, HCQ group n=8, p<0.05)?
**A.** The value was 10.8%.

**Q.** And the effect on cholesterol ([3]; sparing of HDL levels)?
**A.** Its effect on cholesterol is “mild hypocholesterolemic effects”.

**Q.** And the histamine release [4]?
**A.** The histamine release was “inhibits”.

**Q.** And the leukotriene release [4]?
**A.** Its leukotriene release is “inhibits”.

**Q.** And the “release of IL-1 and IL-6” value ([5]; T-cells and monocytes in vitro)?
**A.** The value was “inhibit”.

**Q.** What about the “release of tumor necrosis factor” value ([5]; human macrophages in vitro) of the same compound?
**A.** Its value is “inhibit”.

**Q.** What about the “neutrophil superoxide production and release” value [6] of the same compound?
**A.** Its value is “markedly reduce”.

**Q.** And the platelet aggregation [7]?
**A.** Its platelet aggregation is “inhibit”.

**Q.** What about the “replication of HIV virus” value [8] of the same compound?
**A.** The value was “actively inhibits”.

**Q.** And the “infection by influenza and adenovirus” value [9]?
**A.** The value was “inhibits”.
